Test results as given in US10245240B2, “Treatment of prostate carcinoma” (Pellficure Pharmaceuticals, Inc., priority 2010, dated 2019).

Assays:
[1] = system: hormone-refractory prostate cancer; conditions: Aziz et al., Cancer Res. 2008; cited from earlier work
prostate carcinoma cells = conditions: 5 umol/L; cited from earlier work
hepatoma = conditions: in vivo; cited from earlier work
[2] = system: LNCaP hormone-sensitive human prostate cancer cells; test: Dose response plumbagin in human LNCaP cells, cell counting in absence of DHT; assay type: cell-based; conditions: no DHT; for % control / cell number/20 mean / cell number/20 trial 1 / cell number/20 trial 2 / cell number/20 trial 3 / cell number/20 trial 4: 24 hours
Procedure: LNCaP hormone-sensitive human prostate cancer cells were placed in androgen withdrawal medium in the absence of DHT (dihydrotestosterone). The absence of DHT simulates surgical or chemical castration. The androgen withdrawal medium was phenol-red free DMEM high-glucose containing 10% charcoal-treated Fetal Bovine Serum.
Plumbagin was added at the indicated concentrations in Table 6 for 24 hours. Cells were trypsinized and counted using a Cell Coulter counter Multisizer II, which excludes debris. The results in Table 6 represent cell numbers as percent of control (in which the number of cells in the absence of drug is 100%). FIG. 8 illustrates the effect of plumbagin in human LNCaP cells.

[3] = system: PTEN-P2/GFP prostate cancer cells; test: Effect of naphthoquinone analogs on PTEN-P2/GFP cell proliferation (CellTiter96 formazan-based viability assay); conditions: Mus musculus, 24 h
Procedure: Cell culture: PTEN-P2/GFP are cells that stably express histone H2B-GFP fusion protein.
Cells are grown in DMEM medium containing 10% FBS, 2 mM L-glutamine, 100 U/ml penicillin/100 μg/ml streptomycin, insulin-selenium-transferrin (5 μg/ml insulin), and DHT 10^−8 M final. Androgen withdrawal is achieved by keeping the cells in phenol red-free DMEM medium containing 10% charcoal-treated FBS and the same supplements as in the normal medium except for DHT. Cells are maintained in a humidified incubator at 37° C. and 5% CO2. G418 (100 μg/ml) is added to maintain stable expression of H2B-GFP.
PTEN-P2/GFP prostate cancer cells were plated at a density of 8000 cells/well in 96-well plates (triplicates) in growing medium containing 10% Fetal Bovine Serum and DHT. The next day, increasing concentrations of a naphthoquinone analog (diluted from 10 mM DMSO stock solutions) were incubated for 24 hrs. Cell viability was determined by the formazan-based cytotoxicity assay “CellTiter96Aquaeous nonradioactive proliferation assay” (Promega).

PTEN-P2/GFP tumor = test: In vivo effect of plumbagin combined with castration, pseudo-orthotopic chamber model (Example 5); design: species or system nude mice
Procedure: Animal model and surgical techniques: Animal experiments have been approved as appropriate. All surgical procedures are performed in a sterile laminar flow hood. Dorsal skinfold chambers and surgical instruments are autoclaved before use. Saline used to keep tissue moist during surgical preparation is mixed with gentamicin ([…]).
Male Nude mice (25-35 g body weight) are anesthetized (7.3 mg ketamine hydrochloride and 2.3 mg xylazine/100 g body weight, i.p.) and placed on a heating pad. Two symmetrical titanium frames are implanted into a dorsal skinfold, so as to sandwich the extended double layer of skin. A 15 mm full thickness circular layer is excised. The underlying muscle (M. cutaneous max.) and subcutaneous tissues are covered with a glass coverslip incorporated in one of the frames. After a recovery period of 2-3 days, prostate tissue and cancer cell spheroids are carefully placed in the chamber. Small circular Band Aids are applied on the backside of the chamber after surgery to prevent scratching. Before surgery, Buprenorphine (0.1 mg/kg) will be given IP. After surgery Meloxicam will be given in the drinking water for 4 days Meloxicam (5.0 mg/ml), is added at 35 μl per 100 ml of water to be medicated.
Preparation of stroma: A male donor mouse is euthanized and the anterior prostate tissue is excised, put in a Petri dish with antibiotics (gentamicin 50 μl/ml), and minced with fine scissors into small pieces (<1 mm^2) for implantation.
Preparation of tumor spheroids: Liquid overlay plates are generated using 1% Agarose melted in DMEM that is added to round-bottom 96-well plates (50 ul/well). […] Viability is determined using Trypan blue. […]. The size of the implanted spheroid can be determined precisely to minimize variations between animals. […]
Intravital microscopy: Fluorescence microscopy is performed using a Mikron Instrument Microscope equipped with epi-illuminator and video-triggered stroboscopic illumination from a xenon arc (MV-7600, EG&G). […]

SMILES: CC1=CC(=O)c2c(O)cccc2C1=O [Plumbagin, 5-hydroxy-2-methylnaphthalene-1,4-dione]
- effect on growth and invasion of hormone-refractory prostate cancer [1]: inhibited growth and invasion of hormone-refractory prostate cancer
- expression of PKCq, PI3K, AKT, activation of AP-1, NF-κB, Stat3 (prostate carcinoma cells): inhibit expression of multiple molecular targets
- effect on hepatoma (hepatoma): induced regression of hepatoma
- % control ([2]; 0.5 μM plumbagin): 84.13%
- cell number/20 mean ([2]; 0.5 μM plumbagin): 6335
- cell number/20 trial 1 ([2]; 0.5 μM plumbagin): 6422
- cell number/20 trial 2 ([2]; 0.5 μM plumbagin): 5989
- cell number/20 trial 3 ([2]; 0.5 μM plumbagin): 6453
- cell number/20 trial 4 ([2]; 0.5 μM plumbagin): 6475
- % control ([2]; 1 μM plumbagin): 90.95%
- cell number/20 mean ([2]; 1 μM plumbagin): 6849
- cell number/20 trial 1 ([2]; 1 μM plumbagin): 6997
- cell number/20 trial 2 ([2]; 1 μM plumbagin): 7139
- cell number/20 trial 3 ([2]; 1 μM plumbagin): 6769
- cell number/20 trial 4 ([2]; 1 μM plumbagin): 6490
- % control ([2]; 2 μM plumbagin): 66.23%
- cell number/20 mean ([2]; 2 μM plumbagin): 4987
- cell number/20 trial 1 ([2]; 2 μM plumbagin): 5324
- cell number/20 trial 2 ([2]; 2 μM plumbagin): 5282
- cell number/20 trial 3 ([2]; 2 μM plumbagin): 4522
- cell number/20 trial 4 ([2]; 2 μM plumbagin): 4821
- % control ([2]; 4 μM plumbagin): 42.21%
- cell number/20 mean ([2]; 4 μM plumbagin): 3179
- cell number/20 trial 1 ([2]; 4 μM plumbagin): 3005
- cell number/20 trial 2 ([2]; 4 μM plumbagin): 3082
- cell number/20 trial 3 ([2]; 4 μM plumbagin): 3327
- cell number/20 trial 4 ([2]; 4 μM plumbagin): 3300
- % control ([2]; 6 μM plumbagin): 18.50%
- cell number/20 mean ([2]; 6 μM plumbagin): 1393
- cell number/20 trial 1 ([2]; 6 μM plumbagin): 1396
- cell number/20 trial 2 ([2]; 6 μM plumbagin): 1500
- cell number/20 trial 3 ([2]; 6 μM plumbagin): 1323
- cell number/20 trial 4 ([2]; 6 μM plumbagin): 1352
- % control ([2]; 8 μM plumbagin): 3.93%
- cell number/20 mean ([2]; 8 μM plumbagin): 296
- cell number/20 trial 1 ([2]; 8 μM plumbagin): 330
- cell number/20 trial 2 ([2]; 8 μM plumbagin): 283
- cell number/20 trial 3 ([2]; 8 μM plumbagin): 284
- cell number/20 trial 4 ([2]; 8 μM plumbagin): 287
- efficiency of plumbagin with simulated castration versus castration alone ([2]; in vitro, LNCaP cells): more efficient than treatment castration alone
- IC50 [3]: 4.55 µM
- viability at 1 µM ([3]; 1 μM, medium with 10% FBS and DHT): 94.6%
- viability at 2 µM ([3]; 2 μM, medium with 10% FBS and DHT): 90.9%
- viability at 3 µM ([3]; 3 μM, medium with 10% FBS and DHT): 88.9%
- viability at 4 µM ([3]; 4 μM, medium with 10% FBS and DHT): 73%
- viability at 5 µM ([3]; 5 μM, medium with 10% FBS and DHT): 32.9%
- viability at 7 µM ([3]; 7 μM, medium with 10% FBS and DHT): 0.4%
- viability at 10 µM ([3]; 10 μM, medium with 10% FBS and DHT): 0.6%
- efficiency of combination of plumbagin with castration versus either treatment alone (PTEN-P2/GFP tumor; plumbagin 1 mg/kg intraperitoneal once/day soon after surgical castration): more efficient in vivo than either treatment alone
- tumor size, castration with plumbagin (PTEN-P2/GFP tumor; plumbagin 1 mg/kg ip once/day plus surgical castration): significant decreases in tumor size
- tumor size, plumbagin only (PTEN-P2/GFP tumor; plumbagin 1 mg/kg ip once/day, no castration): did not lead to a marked decrease in tumor size
